{
  "source": "patent US20250304973A1",
  "about": "“HIGH-AFFINITY THROMBIN APTAMERS AND METHODS OF USE” (Ayass Bioscience LLC, priority 2024, published 2025)",
  "type_in_all_cases": "biochemical",
  "key": {"[1]": {"biological_target": "T1, clot-bound thrombin (Homo sapiens, UniProt P00734)", "T1 construct": "from tissue; host or cells: washed fibrin clots formed from platelet-rich plasma of healthy donors", "assay": "Clot-bound thrombin inhibition", "details": "for inhibition of clot-bound thrombin: washed clots from platelet-rich plasma, fluorogenic substrate, 90 min, 37° C.", "protocol": "145. For the inhibition study of clot-bound thrombin, blood samples were collected from healthy donors using citrate-treated tubes and centrifuged at 200×g for 15 min at room temperature. The resulting supernatant consisting of platelet-rich plasma (PRP) was collected and aliquots of 500 μL were transferred to microfuge tubes containing 50 μL of 300 mM CaCl2). The mixture was then incubated for 2 h at 37° C. in an incubator without agitation. The formed clots were washed ten times over the course of 16 h at room temperature; each time, 1 mL aliquots of TBS buffer (50 mM Tris-HCl, 100 mM NaCl, pH 7.4) were added to the clots with mixing. Subsequently, the washed clots were transferred to the assay plate (ThermoFisher Scientific, cat #3915, Waltham, MA, USA). […] After a 20 min incubation period with agitation, a thrombin substrate (, Thrombin substrate III, Fluorogenic, Sigma-Aldrich, cat #605211, St. Louis, MO, USA) was added to each sample at a final concentration of 200 μM. Fluorescence measurements were performed using a SYNERGY/HTX multi-mode reader (BioTek, Agilent Technologies, Santa Clara, CA 95051, USA) with the excitation/emission wavelengths set at 360/460 nm. The measurements were recorded for a total duration of 90 min at a temperature of 37° C."}, "[2]": {"system": "whole human blood", "assay": "Dose-dependent prothrombin time (PT) in whole blood", "details": "1, 2, 3, 4 uM; 2 h room temperature; citrated whole human blood", "protocol": "139. […] PT time was measured using RecombiPlasTin 2G for quantitative determination in human citrated plasma of PT and Fibrinogen on an ACLTOP coagulation analyzer manufactured by Instrumentation Laboratory (Bedford, MA, USA). To assess the activity of the aptamers in a dose-dependent manner in whole blood, human blood samples were collected in citrate-treated tubes. The blood samples were then incubated at room temperature for 2 h in the absence or presence of varying concentrations of the thrombin aptamers. To measure the Prothrombin Time (PT) on the ACLTOP coagulation analyzer, plasma was obtained by centrifuging the samples at 1500×g for 10 min at 4° C. For the dose dependence study, concentrations of 1 uM, 2 uM, 3 uM, and 4 uM of AYA1809002 and AYA1809004 were utilized.\n(§1) 156. To facilitate future applications, gaining a comprehensive understanding of the activity of aptamers in whole blood is of paramount importance. To assess their effectiveness, we tested the selected aptamers at various concentrations in whole blood to evaluate their impact on Factor II activity and PT time. Human blood samples were collected in citrate- treated tubes. The blood samples were then incubated at room temperature for 2 h in the absence or presence of varying concentrations of thrombin aptamers. […]"}, "[3]": {"biological_target": "thrombin (Homo sapiens, UniProt P00734)", "assay": "Direct thrombin activity inhibition (Thrombin Inhibitor Screening Assay Kit, fluorometric)", "design": "a thrombin enzyme mixture was added to each sample and control well; purchased Abcam ab197007", "details": "different aptamer concentrations; AMC substrate, 360/460 nm, 45 min, 37° C.", "protocol": "141. A Thrombin Inhibitor Screening Assay Kit (fluorometric) (Abcam, cat #ab197007, Waltham, Boston, MA, USA) was employed to test the direct binding ability and inhibitory potential of the AYA1809002 and AYA1809004 aptamers against thrombin. The procedure was carried out following the standard protocol provided with the kit. […] Subsequently, a thrombin enzyme mixture was added to each sample and control well. Following an incubation period of 20 min, a substrate mixture was introduced into each sample and control well. Fluorescence measurements were taken using a SYNERGY/HTX multi-mode reader (BioTek, Agilent Technologies, Santa Clara, CA 95051, USA) with the excitation/emission wavelengths set at 360/460 nm. The measurements were recorded for 45 min at a temperature of 37° C. while ensuring protection from light.\n155. The direct binding and inhibitory capabilities of AYA1809002 and AYA1809004 ap- tamers on thrombin were evaluated using a Thrombin Inhibitor Screening Assay Kit (fluorometric). The procedure was carried out following the standard protocol provided with the kit. […] The fluorescence intensity is then measured over time to assess the thrombin inhibitory potential of the sample. […] The released AMC is detectable through fluorescence measurement at an excitation/emission wavelength of 360/460 nm."}, "[4]": {"biological_target": "T2, Factor II activity (Homo sapiens, UniProt P00734)", "T2 construct": "tissue Rockland Immunochemicals, Inc R214-0050; host or cells: human citrated plasma / whole blood", "assay": "Dose-dependent Factor II activity in whole blood", "details": "1, 2, 3, 4 uM; 2 h room temperature; citrated whole human blood", "protocol": "138. […] Factor II activity was measured using human plasma immunodepleted of Factor II for the quantitative determination of Factor II activity in citrated plasma based on the prothrombin time (PT) assay, for which an ACLTOP coagulation analyzer manufactured by Instrumentation Laboratory (Bedford, MA, USA) was used. To evaluate the dose-dependent activity of the aptamers in whole blood, human blood samples were collected in citrate-treated tubes. Subsequently, the blood samples were incubated at room temperature for 2 h in both the absence and presence of various concentrations of thrombin aptamers. To measure the Factor II activity using the ACLTOP coagulation analyzer, plasma was separated from the cells by centrifugation at 1500×g for 10 min at 4° C. For the dose-dependent study, concentrations of 1 uM, 2 uM, 3 uM, and 4 uM of AYA1809002 and AYA1809004 were utilized.\nas §1"}},
  "note": "Entries after “also recorded” stand apart in the source; their conditions may differ.",
  "data": [
    {"substance": "AYA1809004: ssDNA thrombin aptamer TCGTCAAGGTACGGTTGGGGGGGTGGGTGTTGACGTTGAA (DNA, backbone not given here)", "values": [
      {"measurement": "inhibition of clot-bound thrombin", "setting": "[1]", "result": "inhibit clot-bound thrombin in a concentration-dependent manner"},
      {"measurement": "effect on prothrombin time (PT) in whole blood", "setting": "[2]", "result": "corresponding increase in prothrombin time"},
      {"measurement": "inhibition of thrombin activity", "setting": "[3]", "result": "dose-dependent inhibition of thrombin activity"},
      {"measurement": "effect on Factor II activity in whole blood", "setting": "[4]", "result": "dose-dependent decrease in Factor II activity"}
    ]},
    {"substance": "AYA1809002: ssDNA thrombin aptamer GCGGTGTTGCTGGGGTTGGGAGGTTGGAGGAAGCAATCGC", "values": [
      {"measurement": "level of clot-bound thrombin inhibition, comparison", "setting": "[1]; comparison between aptamers and with dabigatran 2 μM", "result": "higher level of inhibition compared to AYA1809004"},
      {"measurement": "inhibition of clot-bound thrombin", "setting": "[1]", "result": "inhibit clot-bound thrombin in a concentration-dependent manner"},
      {"measurement": "effect on prothrombin time (PT) in whole blood", "setting": "[2]", "result": "corresponding increase in prothrombin time; also recorded: corresponding increase in PT"},
      {"measurement": "inhibition of thrombin activity", "setting": "[3]", "result": "dose-dependent inhibition of thrombin activity"},
      {"measurement": "effect on Factor II activity in whole blood", "setting": "[4]", "result": "dose-dependent decrease in Factor II activity"}
    ]}
  ]
}
